According to article PMC10066365, “Nemacol is a small molecule inhibitor of C. elegans vesicular acetylcholine transporter with anthelmintic potential” (Nature Communications, 2023):

Experiments:
C. elegans = C. elegans motor phenotype scoring on solid media (Punc/jerky-unc, coiled, paralyzed), wild-type young adults; type: in vivo, Caenorhabditis elegans; conditions: for any phene (mean % fraction of young adults exhibiting any phenotype: coiled, jerky-Unc or paralyzed): one hour, mean of three biological replicates; for EC50: Caenorhabditis elegans, any motor phenotype after 1 h on solid media, ± 95% CI, read-out: C. elegans - motor disruption EC50
[1] = system: Dirofilaria immitis microfilariae; test: Dirofilaria immitis microfilariae immobility assay (DiroImager, 72 h); conditions: Dirofilaria immitis microfilariae
Outline: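 About 250 freshly purified microfilariae of the Missouri isolate per well in supplemented RPMI 1640, exposed to compound for 72 h. Motility scored by automated whole-plate optical imaging; medium with 1% DMSO as negative control.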

[2] = system: Dirofilaria immitis L3/L4; test: Dirofilaria immitis L3/L4 motility assay (DiroImager, 72 h); conditions: Dirofilaria immitis L4
Pristionchus pacificus = Pristionchus pacificus motor disruption dose-response on solid media, 1 h; conditions: for mean % any phene (coiled, jerky-Unc or paralyzed): Pristionchus pacificus young adults, mean of three biological replicates; for EC50: Pristionchus pacificus, 1 h, read-out: P. pacificus motor disruption EC50; for rep 1 atypical locomotion / rep 1 coiled / rep 1 no phene / rep 1 paralyzed / rep 2 atypical locomotion / rep 2 coiled / rep 2 no phene / rep 2 paralyzed: count of 20 animals per trial, one hour
[3] = 3.75uM, third c14 line of each analog
[4] = 15uM, second c14 line of each analog
[5] = 60uM, first c14 line of each analog
[6] = conc 3.75, observed at one hour

## CC1CCC(N2CCN(c3ccc(Cl)cc3)CC2)C1 (stereo not shown) [Nemacol-44]
C. elegans; [3]
  any phene (mean % fraction of young adults exhibiting any phenotype: coiled, jerky-Unc or paralyzed): 80%
C. elegans; [4]
  any phene (mean % fraction of young adults exhibiting any phenotype: coiled, jerky-Unc or paralyzed): 100%
C. elegans; [5]
  any phene (mean % fraction of young adults exhibiting any phenotype: coiled, jerky-Unc or paralyzed): 100%
C. elegans
  EC50: 3.4 µM
[1]; 0.016 µM
  % effect (motility), DIROIM MF: 0%
[1]; 0.08 µM
  % effect (motility), DIROIM MF: 0%
[1]; 0.4 µM
  % effect (motility), DIROIM MF: 0%
[1]; 2 µM
  % effect (motility), DIROIM MF: 0%
[1]; 10 µM
  % effect (motility), DIROIM MF: 0%
[2]; 2 µM
  % effect (motility), DIROIM L4: 0%
[2]; 10 µM
  % effect (motility), DIROIM L4: 0%
[2]; 50 µM
  % effect (motility), DIROIM L4: 10%
Pristionchus pacificus; [6]
  mean % any phene (coiled, jerky-Unc or paralyzed): 63.3333%
Pristionchus pacificus; conc 15, observed at one hour
  mean % any phene (coiled, jerky-Unc or paralyzed): 90.7456%
Pristionchus pacificus; conc 60, observed at one hour
  mean % any phene (coiled, jerky-Unc or paralyzed): 100%
Pristionchus pacificus
  EC50: 2500 ± 1000 nM
Pristionchus pacificus; conc 3.75
  rep 1 atypical locomotion: 3
  rep 1 coiled: 0
  rep 1 no phene: 17
  rep 1 paralyzed: 0
  rep 2 atypical locomotion: 10
  rep 2 coiled: 8
  rep 2 no phene: 2
  rep 2 paralyzed: 0
Pristionchus pacificus; conc 15
  rep 1 atypical locomotion: 13
  rep 1 coiled: 7
  rep 1 no phene: 0
  rep 1 paralyzed: 0
  rep 2 atypical locomotion: 0
  rep 2 coiled: 14
  rep 2 no phene: 0
  rep 2 paralyzed: 6
Pristionchus pacificus; conc 60
  rep 1 atypical locomotion: 2
  rep 1 coiled: 5
  rep 1 no phene: 0
  rep 1 paralyzed: 13
  rep 2 atypical locomotion: 1
  rep 2 coiled: 7
  rep 2 no phene: 0
  rep 2 paralyzed: 12

## FC(F)(F)c1cccc(N2CCN(CC3CC4C=CC3C4)CC2)c1 (stereo not shown) [Nemacol-47]
C. elegans; [3]
  any phene (mean % fraction of young adults exhibiting any phenotype: coiled, jerky-Unc or paralyzed): 34.1667%
C. elegans; [4]
  any phene (mean % fraction of young adults exhibiting any phenotype: coiled, jerky-Unc or paralyzed): 81.6667%
C. elegans; [5]
  any phene (mean % fraction of young adults exhibiting any phenotype: coiled, jerky-Unc or paralyzed): 100%
C. elegans
  EC50: 5.7 ± 1.7 µM
[1]; 0.016 µM
  % effect (motility), DIROIM MF: 0%
[1]; 0.08 µM
  % effect (motility), DIROIM MF: 0%
[1]; 0.4 µM
  % effect (motility), DIROIM MF: 0%
[1]; 2 µM
  % effect (motility), DIROIM MF: 0%
[1]; 10 µM
  % effect (motility), DIROIM MF: 0%
[2]; 10 µM
  % effect (motility), DIROIM L4: 0%
[2]; 50 µM
  % effect (motility), DIROIM L4: 5%
Pristionchus pacificus; [6]
  mean % any phene (coiled, jerky-Unc or paralyzed): 79.1667%
Pristionchus pacificus; conc 15, observed at one hour
  mean % any phene (coiled, jerky-Unc or paralyzed): 100%
Pristionchus pacificus; conc 60, observed at one hour
  mean % any phene (coiled, jerky-Unc or paralyzed): 100%
Pristionchus pacificus
  EC50: 2900 nM
